Data reported in patent publication US10703757B2, “Compounds and methods for CDK8 modulation and indications therefor” (Plexxikon Inc., priority 2016, dated 2020).

Columns and labels:
[1] = test system: CDK8 (phosphorylation of STAT1 at serine 727 in A549 cells); assay: Cell based Phospho-STAT1 assay (IFNγ-stimulated A549 cells, AlphaLISA); conditions: Homo sapiens, A549, A549 cells, phospho-STAT1 after IFNγ stimulation
How it was run: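 A549 cells given serial compound dilutions for 1 h at 37 °C, then stimulated with IFNγ at 10 ng/mL final for 30 min. Lysate STAT1 Ser727 phosphorylation measured by AlphaLISA; % inhibition vs stimulated/unstimulated DMSO controls, IC50 by nonlinear regression.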

[2] = test system: CDK8 (TCF/LEF luciferase reporter in HCT116 cells); assay: Cell based TCF/LEF reporter assay (HCT116+TCF/LEF luciferase); conditions: Homo sapiens, HCT-116, 24 h
How it was run: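 Luciferase readout was corrected for viability (CellTiter-Fluor) and scaled between DMSO high and 10 uM CCT251545 low controls, giving IC50 by nonlinear regression. Compounds, serially diluted, were incubated 24 h at 37 °C on HCT116 clones stably expressing a TCF/LEF-driven luciferase reporter.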

Row | SMILES | IC50 [1] | IC50 [2]
1 | N#CC1CCC(c2nccn3ncc(-c4ccc(-c5cnn(CC(N)=O)c5)cc4)c23)CC1 (stereo not drawn) [Compound P-0013, 2-(4-(4-(4-((1s,4s)-4-cyanoclohexyl)pyrazolo[1,5-a]pyrazin-3-yl)phenyl)-1H-pyrazol-1-yl)acetamide] | 0.1 to 100 nM | 0.1 to 100 nM
2 | CC(C)(O)Cn1cc(-c2ccc(-c3cnn4ccnc(C5CCC(C#N)CC5)c34)cc2)cn1 (stereo not drawn) [Compound P-0064, (1r,4r)-4-(3-(4-(1-(2-hydroxy-2-methylpropyl)-1H-pyrazol-4-yl)phenyl)pyrazolo[1,5-a]pyrazin-4-yl)cyclohexane-1-carbonitrile] | 0.1 to 100 nM | 0.1 to 100 nM
3 | CS(=O)(=O)Nc1ccc2cc(-c3cnn4cccc(C5=CCC(C#N)CC5)c34)ccc2n1 (stereo not drawn) [Compound P-0150, N-(6-(4-(4-cyanocyclohex-1-en-1-yl)pyrazolo[1,5-a]pyridin-3-yl)quinolin-2-yl)methanesulfonamide] | 0.1 to 100 nM | 0.1 to 100 nM
4 | Cc1nc2cc(-c3cnn4ccnc(C5=CCC(C#N)CC5)c34)ccc2s1 (stereo not drawn) [Compound P-0148, 4-(3-(2-methylbenzo[d]thiazol-5-yl)pyrazolo[1,5-a]pyrazin-4-yl)cyclohex-3-ene-1-carbonitrile] | 100 to 1000 nM | 0.1 to 100 nM
5 | N#CC1CC=C(c2nccn3ncc(-c4cnn(C5CC5)c4)c23)CC1 (stereo not drawn) [Compound P-0076, 4-(3-(1-cyclopropyl-1H-pyrazol-4-yl)pyrazolo[1,5-a]pyrazin-4-yl)cyclohex-3-ene-1-carbonitrile] | 100 to 1000 nM | 100 to 1000 nM

Further lines, results first:

Row | IC50 [1] | IC50 [2] | SMILES
6 | 100 to 1000 nM | 100 to 1000 nM | N#CC1(c2ccccc2)CCN(c2cccc3ncc(-c4ccc(-c5cnn(C(F)F)c5)cc4)n23)CC1 [Compound P-0322, 1-(3-(4-(1-(difluoromethyl)-1H-pyrazol-4-yl)phenyl)imidazo[1,2-a]pyridin-5-yl)-4-phenylpiperidine-4-carbonitrile]
7 | 0.1 to 100 nM | 0.1 to 100 nM | CC(C)(C#Cc1cccn2ncc(-c3ccc(-c4cnn(CC(F)(F)F)c4)cc3)c12)C(N)=O [Compound P-0468, 2,2-dimethyl-4-(3-(4-(1-(2,2,2-trifluoroethyl)-1H-pyrazol-4-yl)phenyl)pyrazolo[1,5-a]pyridin-4-yl)but-3-ynamide]
8 | 100 to 1000 nM | 100 to 1000 nM | N#CC1CCN(c2cccn3ncc(-c4ccc(OCCCN5CCCCC5)cc4)c23)CC1 [Compound P-0260, 1-(3-(4-(3-(piperidin-1-yl)propoxy)phenyl)pyrazolo[1,5-a]pyridin-4-yl)piperidine-4-carbonitrile]
9 | 0.1 to 100 nM | 0.1 to 100 nM | CC(C)(O)C#Cc1cccn2ncc(-c3ccc(-c4cn[nH]c4)cc3)c12 [Compound P-0229, 4-(3-(4-(1H-pyrazol-4-yl)phenyl)pyrazolo[1,5-a]pyridin-4-yl)-2-methylbut-3-yn-2-ol]
